The source of these data is patent US11708348B2, “Protease inhibitors for treatment of coronavirus infections” (The Scripps Research Institute, priority 2021, dated 2023).

Each structure is given as a SMILES string.

One experiment deals with SARS-CoV-2 strain USA-WA1/2020. In words: microbe, parasite or virus in culture. Format: cell-based. Conditions: Severe acute respiratory syndrome coronavirus 2, HeLa-ACE2, 24 h, HeLa-ACE2 cells, SARS-CoV-2 infection, 24 h; read-out: EC50, uM (Hela).
By EC50 is commonly meant the concentration at which the effect is half-maximal. Regarding `CC(C)(C)C(=O)N1CC2(CC2)C[C@H]1C(=O)N[C@@H](C[C@@H]1CCNC1=O)C(=O)COC(F)(F)F` [Compound 665, (S)-N-((S)-3-oxo-1-((S)-2-oxopyrrolidin-3-yl)-4-(trifluoromethoxy)butan-2-yl)-5-pivaloyl-5-azaspiro[2.4]heptane-6-carboxamide], the EC50 was 0.05 to 0.2 µM. On to `COc1ccc(/C=C/C[C@@H](O)C(=O)N2CC3(CC3)C[C@H]2C(=O)N[C@@H](C[C@@H]2CCNC2=O)C(=O)COC(F)(F)F)cc1` [Compound 666, (S)-5-((R,E)-2-hydroxy-5-(4-methoxyphenyl)pent-4-enoyl)-N-((S)-3-oxo-1-((S)-2-oxopyrrolidin-3-yl)-4-(trifluoromethoxy)butan-2-yl)-5-azaspiro[2.4]heptane-6-carboxamide], for which the half-maximal effective concentration (EC50) was in the range of 0.05 to 0.2 µM.

As for `O=C1NCC[C@H]1C[C@H](NC(=O)[C@@H]1CC2(CC2)CN1C(=O)[C@H](O)C/C=C/c1ccc(F)cc1)C(=O)COC(F)(F)F` [Compound 667, (S)-5-((R,E)-5-(4-fluorophenyl)-2-hydroxypent-4-enoyl)-N-((S)-3-oxo-1-((S)-2-oxopyrrolidin-3-yl)-4-(trifluoromethoxy)butan-2-yl)-5-azaspiro[2.4]heptane-6-carboxamide], the EC50 is 0.05 to 0.2 µM. With `O=C1NCC[C@H]1C[C@H](NC(=O)[C@@H]1CC2(CC2)CN1C(=O)CNS(=O)(=O)Nc1ccccc1)C(=O)COC(F)(F)F` [Compound 669, (S)-N-((S)-3-oxo-1-((S)-2-oxopyrrolidin-3-yl)-4-(trifluoromethoxy)butan-2-yl)-5-((N-phenylsulfamoyl)glycyl)-5-azaspiro[2.4]heptane-6-carboxamide], the EC50 lay in the range of 0.05 to 0.2 µM.

Consider `O=C1NCC[C@H]1C[C@H](NC(=O)[C@@H]1CC2(CC2)CN1C(=O)CCNS(=O)(=O)Nc1ccccc1)C(=O)COC(F)(F)F` [Compound 670, (S)-N-((S)-3-oxo-1-((S)-2-oxopyrrolidin-3-yl)-4-(trifluoromethoxy)butan-2-yl)-5-(3-((N-phenylsulfamoyl)amino)propanoyl)-5-azaspiro[2.4]heptane-6-carboxamide], for which the 50% effective concentration (EC50) was in the range of 0.2 to 0.5 µM. Consider `CC(C)C[C@@H](O)C(=O)N[C@@H](Cc1cccc(F)c1)C(=O)N[C@@H](C[C@@H]1CCNC1=O)C(=O)COC(F)(F)F` [Compound 671, (R)-N-((S)-3-(3-fluorophenyl)-1-oxo-1-(((S)-3-oxo-1-((S)-2-oxopyrrolidin-3-yl)-4-(trifluoromethoxy)butan-2-yl)amino)propan-2-yl)-2-hydroxy-4-methylpentanamide], for which the EC50 is less than 0.05 µM. Regarding `O=C1NCC[C@H]1C[C@H](NC(=O)[C@@H]1CC2(CC2)CN1C(=O)CNCC(F)(F)F)C(=O)COC(F)(F)F` [Compound 672, (S)-N-((S)-3-oxo-1-((S)-2-oxopyrrolidin-3-yl)-4-(trifluoromethoxy)butan-2-yl)-5-((2,2,2-trifluoroethyl)glycyl)-5-azaspiro[2.4]heptane-6-carboxamide], the EC50 lay in the range of 0.05 to 0.2 µM. Same read-out and setting: next, `O=C1NCC[C@H]1C[C@H](NC(=O)[C@@H]1CC2(CC2)CN1C(=O)COCC(F)(F)F)C(=O)COC(F)(F)F` [Compound 673, (S)-N-((S)-3-oxo-1-((S)-2-oxopyrrolidin-3-yl)-4-(trifluoromethoxy)butan-2-yl)-5-(2-(2,2,2-trifluoroethoxy)acetyl)-5-azaspiro[2.4]heptane-6-carboxamide]: 0.05 to 0.2 µM; `O=C(C(=O)N1CC2(CC2)C[C@H]1C(=O)N[C@@H](C[C@@H]1CCNC1=O)C(=O)COC(F)(F)F)c1ccccc1` [Compound 674, (S)-N-((S)-3-oxo-1-((S)-2-oxopyrrolidin-3-yl)-4-(trifluoromethoxy)butan-2-yl)-5-(2-oxo-2-phenylacetyl)-5-azaspiro[2.4]heptane-6-carboxamide]: 0.05 to 0.2 µM; `CS(=O)(=O)NC/C=C/C[C@@H](O)C(=O)N1CC2(CC2)C[C@H]1C(=O)N[C@@H](C[C@@H]1CCNC1=O)C(=O)COC(F)(F)F` [Compound 675, (S)-5-((R,E)-2-hydroxy-6-(methylsulfonamido)hex-4-enoyl)-N-((S)-3-oxo-1-((S)-2-oxopyrrolidin-3-yl)-4-(trifluoromethoxy)butan-2-yl)-5-azaspiro[2.4]heptane-6-carboxamide]: 0.2 to 0.5 µM. Still for that read-out and setting: the same measure for `CNC(=O)C(=O)N1CC2(CC2)C[C@H]1C(=O)N[C@@H](C[C@@H]1CCNC1=O)C(=O)COC(F)(F)F` [Compound 676, (S)-5-(2-(methylamino)-2-oxoacetyl)-N-((S)-3-oxo-1-((S)-2-oxopyrrolidin-3-yl)-4-(trifluoromethoxy)butan-2-yl)-5-azaspiro[2.4]heptane-6-carboxamide]: 0.05 to 0.2 µM; for `CNC(=O)C(=O)N[C@@H](Cc1cccc(F)c1)C(=O)N[C@@H](C[C@@H]1CCNC1=O)C(=O)COC(F)(F)F` [Compound 677, N1-((S)-3-(3-fluorophenyl)-1-oxo-1-(((S)-3-oxo-1-((S)-2-oxopyrrolidin-3-yl)-4-(trifluoromethoxy)butan-2-yl)amino)propan-2-yl)-N2-methyloxalamide]: less than 0.05 µM; for `CC(F)(F)CCC(=O)N1CC2(CC2)C[C@H]1C(=O)N[C@@H](C[C@@H]1CCNC1=O)C(=O)COC(F)(F)F` [Compound 678, (S)-5-(4,4-difluoropentanoyl)-N-((S)-3-oxo-1-((S)-2-oxopyrrolidin-3-yl)-4-(trifluoromethoxy)butan-2-yl)-5-azaspiro[2.4]heptane-6-carboxamide]: less than 0.05 µM.

On to `O=C1NCC[C@H]1C[C@H](NC(=O)[C@@H]1CC2(CC2)CN1C(=O)[C@@H]1CCCO1)C(=O)COC(F)(F)F` [Compound 679, (S)-N-((S)-3-oxo-1-((S)-2-oxopyrrolidin-3-yl)-4-(trifluoromethoxy)butan-2-yl)-5-((S)-tetrahydrofuran-2-carbonyl)-5-azaspiro[2.4]heptane-6-carboxamide], for which the concentration for a half-maximal effect (EC50) is 0.2 to 0.5 µM. For `O=C1NCC[C@H]1C[C@H](NC(=O)[C@@H]1CC2(CC2)CN1C(=O)C(O)(c1ccccc1)C(F)(F)F)C(=O)COC(F)(F)F` (stereo partly drawn) [Compound 681, (6S)-N-((S)-3-oxo-1-((S)-2-oxopyrrolidin-3-yl)-4-(trifluoromethoxy)butan-2-yl)-5-(3,3,3-trifluoro-2-hydroxy-2-phenylpropanoyl)-5-azaspiro[2.4]heptane-6-carboxamide], the EC50 was in the range of 0.05 to 0.2 µM.

In the case of `O=C1NCC[C@H]1C[C@H](NC(=O)[C@@H]1CC2(CC2)CN1C(=O)C1CCOCC1)C(=O)COC(F)(F)F` [Compound 682, (S)-N-((S)-3-oxo-1-((S)-2-oxopyrrolidin-3-yl)-4-(trifluoromethoxy)butan-2-yl)-5-(tetrahydro-2H-pyran-4-carbonyl)-5-azaspiro[2.4]heptane-6-carboxamide], the EC50 lay in the range of 0.2 to 0.5 µM. Still for that read-out and setting: next, `O=C1NCC[C@H]1C[C@H](NC(=O)[C@@H]1CC2(CC2)CN1C(=O)CCC(F)F)C(=O)COC(F)(F)F` [Compound 683, (S)-5-(4,4-difluorobutanoyl)-N-((S)-3-oxo-1-((S)-2-oxopyrrolidin-3-yl)-4-(trifluoromethoxy)butan-2-yl)-5-azaspiro[2.4]heptane-6-carboxamide]: 0.05 to 0.2 µM. For `O=C1NCC[C@H]1C[C@H](NC(=O)[C@@H]1CC2(CC2)CN1C(=O)CC(F)(F)C(F)F)C(=O)COC(F)(F)F` [Compound 684, (S)-N-((S)-3-oxo-1-((S)-2-oxopyrrolidin-3-yl)-4-(trifluoromethoxy)butan-2-yl)-5-(3,3,4,4-tetrafluorobutanoyl)-5-azaspiro[2.4]heptane-6-carboxamide], the EC50 is 0.05 to 0.2 µM.

Consider `O=C1NCC[C@H]1C[C@H](NC(=O)[C@@H]1CC2(CC2)CN1C(=O)c1ccccc1C(F)(F)F)C(=O)COC(F)(F)F` [Compound 686, (S)-N-((S)-3-oxo-1-((S)-2-oxopyrrolidin-3-yl)-4-(trifluoromethoxy)butan-2-yl)-5-(2-(trifluoromethyl)benzoyl)-5-azaspiro[2.4]heptane-6-carboxamide], for which the EC50 is less than 0.05 µM. For the molecule `O=C1NCC[C@H]1C[C@H](NC(=O)[C@@H]1CC2(CC2)CN1C(=O)c1ccc2c(c1)OC(F)(F)O2)C(=O)COC(F)(F)F` [Compound 687, (S)-5-(2,2-difluorobenzo[d][1,3]dioxole-5-carbonyl)-N-((S)-3-oxo-1-((S)-2-oxopyrrolidin-3-yl)-4-(trifluoromethoxy)butan-2-yl)-5-azaspiro[2.4]heptane-6-carboxamide], the EC50 was less than 0.05 µM. In the case of `CCC(=O)N1CC2(CC2)C[C@H]1C(=O)N[C@@H](C[C@@H]1CCNC1=O)C(=O)COC(F)(F)F` [Compound 688, (S)-N-((S)-3-oxo-1-((S)-2-oxopyrrolidin-3-yl)-4-(trifluoromethoxy)butan-2-yl)-5-propionyl-5-azaspiro[2.4]heptane-6-carboxamide], the EC50 fell in the range of 0.05 to 0.2 µM. Still for that read-out and setting: the same measure for `C=CCC(=O)N1CC2(CC2)C[C@H]1C(=O)N[C@@H](C[C@@H]1CCNC1=O)C(=O)COC(F)(F)F` [Compound 689, (S)-5-(but-3-enoyl)-N-((S)-3-oxo-1-((S)-2-oxopyrrolidin-3-yl)-4-(trifluoromethoxy)butan-2-yl)-5-azaspiro[2.4]heptane-6-carboxamide]: 0.05 to 0.2 µM; for `C=CCCC(=O)N1CC2(CC2)C[C@H]1C(=O)N[C@@H](C[C@@H]1CCNC1=O)C(=O)COC(F)(F)F` [Compound 690, (S)-N-((S)-3-oxo-1-((S)-2-oxopyrrolidin-3-yl)-4-(trifluoromethoxy)butan-2-yl)-5-(pent-4-enoyl)-5-azaspiro[2.4]heptane-6-carboxamide]: 0.05 to 0.2 µM.

Staying with this experiment, now noted: Severe acute respiratory syndrome coronavirus 2, HeLa-ACE2, 24 h; read-out: EC50, uM (Hela).
For the molecule `O=C1NCC[C@H]1C[C@H](NC(=O)[C@@H]1CC2(CC2)CN1C(=O)C1(NC(=O)C(F)(F)F)CCC(F)(F)CC1)C(=O)COC(F)(F)F` [Compound 680, (S)-5-(4,4-difluoro-1-(2,2,2-trifluoroacetamido)cyclohexane-1-carbonyl)-N-((S)-3-oxo-1-((S)-2-oxopyrrolidin-3-yl)-4-(trifluoromethoxy)butan-2-yl)-5-azaspiro[2.4]heptane-6-carboxamide], the EC50 is 0.2 to 0.5 µM.
